Patent publication US12077503B2, “Substituted cyclic amides and their use as herbicides” (FMC CORPORATION, priority 2015, dated 2024)

Key:
Type in all cases: in vivo
[1] = system: barnyardgrass (Echinochloa crus-galli); test: Test A preemergence; settings: Echinochloa crus-galli, pre-emergence, 240 h, 0 to 100 scale where 0 is no effect and 100 is complete control, read-out: Barnyardgrass plant response rating
Method in brief: (§1)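 Preemergence soil spray on seeded pots or post-emergence spray on 1–2 leaf plants, in loam–sand blend. Greenhouse ~10 d. Visual rating 0–100 against untreated plants.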

[2] = system: ragweed (common ragweed, Ambrosia elatior); test: Test A preemergence; settings: Ambrosia artemisiifolia, pre-emergence, 240 h, 0 to 100 scale where 0 is no effect and 100 is complete control, read-out: Ragweed plant response rating
Method in brief: as §1

[3] = system: Kochia (Kochia scoparia); test: Test A preemergence; settings: Bassia scoparia, pre-emergence, 240 h, 0 to 100 scale where 0 is no effect and 100 is complete control, read-out: Kochia plant response rating
Method in brief: as §1

[4] = system: ryegrass, Italian (Italian ryegrass, Lolium multiflorum); test: Test A preemergence; settings: Lolium multiflorum, pre-emergence, 240 h, 0 to 100 scale where 0 is no effect and 100 is complete control, read-out: Ryegrass, Italian plant response rating
Method in brief: as §1

[5] = system: pigweed (Amaranthus retroflexus); test: Test A preemergence; settings: Amaranthus retroflexus, pre-emergence, 240 h, 0 to 100 scale where 0 is no effect and 100 is complete control, read-out: Pigweed plant response rating
[6] = system: giant foxtail (Setaria faberii); test: Test A preemergence; settings: Setaria faberi, pre-emergence, 240 h, 0 to 100 scale where 0 is no effect and 100 is complete control, read-out: Foxtail, Giant plant response rating
Method in brief: as §1

[7] = system: wheat (Triticum aestivum); test: Test A postemergence; settings: Triticum aestivum, post-emergence, 240 h, 125 g ai/ha, postemergence, visual injury vs untreated controls after approx. 10 d; 0 = no effect, 100 = complete control; read-out: Wheat plant response rating (0 to 100 scale)
Method in brief: as §1

[8] = system: barnyardgrass (Echinochloa crus-galli); test: Test A postemergence; settings: Echinochloa crus-galli, post-emergence, 240 h
Method in brief: as §1

[9] = system: Galium (catchweed bedstraw, Galium aparine); test: Test A postemergence; settings: Galium, post-emergence, 240 h
Method in brief: as §1

[10] = system: corn (Zea mays); test: Test A postemergence; settings: Zea mays, post-emergence, 240 h
Method in brief: as §1

[11] = system: ragweed (common ragweed, Ambrosia elatior); test: Test A postemergence; settings: Ambrosia artemisiifolia, post-emergence, 240 h, 125 g ai/ha, postemergence, visual injury vs untreated controls after approx. 10 d; 0 = no effect, 100 = complete control; read-out: Ragweed plant response rating (0 to 100 scale)
Method in brief: as §1

[12] = system: Kochia (Kochia scoparia); test: Test A postemergence; settings: Bassia scoparia, post-emergence, 240 h
Method in brief: as §1

[13] = system: ryegrass, Italian (Italian ryegrass, Lolium multiflorum); test: Test A postemergence; settings: Lolium multiflorum, post-emergence, 240 h, 125 g ai/ha, postemergence, visual injury vs untreated controls after approx. 10 d; 0 = no effect, 100 = complete control; read-out: Ryegrass, Italian plant response rating (0 to 100 scale)
Method in brief: as §1

[14] = system: pigweed (Amaranthus retroflexus); test: Test A postemergence; settings: Amaranthus retroflexus, post-emergence, 240 h, 125 g ai/ha, postemergence, visual injury vs untreated controls after approx. 10 d; 0 = no effect, 100 = complete control; read-out: Pigweed plant response rating (0 to 100 scale)
Method in brief: as §1

[15] = system: giant foxtail (Setaria faberii); test: Test A postemergence; settings: Setaria faberi, post-emergence, 240 h
Method in brief: as §1

[16] = system: blackgrass (Alopecurus myosuroides); test: Test A postemergence; settings: Alopecurus myosuroides, post-emergence, 240 h
Method in brief: as §1

[17] = system: barnyardgrass (Echinochloa crus-galli); test: Test B flooded paddy test; settings: Echinochloa crus-galli, 250 g ai/ha, Flood; 0 to 100 scale where 0 is no effect and 100 is complete control; read-out: Barnyardgrass plant response rating
Method in brief: (§2)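 Response scored visually against untreated controls, 0 = no effect and 100 = complete control, 13–15 d after treatment in the greenhouse. Compounds added to paddy water held 3 cm above soil surface. Treatment given at 2-leaf stage.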

[18] = system: ducksalad (Heteranthera limosa); test: Test B flooded paddy test; settings: Heteranthera limosa, 250 g ai/ha, Flood; 0 to 100 scale where 0 is no effect and 100 is complete control; read-out: Ducksalad plant response rating
Method in brief: as §2

[19] = system: sedge, umbrella (small-flower umbrella sedge, Cyperus difformis); test: Test B flooded paddy test; settings: Cyperus difformis, 250 g ai/ha, Flood; 0 to 100 scale where 0 is no effect and 100 is complete control; read-out: Sedge, Umbrella plant response rating
Method in brief: as §2

[20] = system: rice (Oryra sativa); test: Test B flooded paddy test; settings: Oryza sativa, 250 g ai/ha, Flood; 0 to 100 scale where 0 is no effect and 100 is complete control; read-out: Rice plant response rating
Method in brief: as §2

[21] = 125 g ai/ha, preemergence, approx. 10 d

How did the pest or weed control at 31 g/ha ([1]; 31 g ai/ha, Preemergence) turn out when `CN1C[C@H](c2cc(F)cc(C(F)(F)F)c2)[C@@H](C(=O)Nc2cccnc2F)C1=O` [Compound 1176] was run?
The pest or weed control at 31 g/ha was 90%.

And the pest or weed control at 125 g/ha [1, 21]?
The pest or weed control at 125 g/ha was 90%.

And the pest or weed control at 31 g/ha ([2]; 31 g ai/ha, Preemergence)?
The pest or weed control at 31 g/ha was 0%.

What about the pest or weed control at 125 g/ha [2, 21] of the same molecule?
Its pest or weed control at 125 g/ha is 0%.

What about the pest or weed control at 31 g/ha ([3]; 31 g ai/ha, Preemergence) of the same molecule?
Its pest or weed control at 31 g/ha is 0%.

And the pest or weed control at 125 g/ha [3, 21]?
Its pest or weed control at 125 g/ha is 40%.

What about the pest or weed control at 31 g/ha ([4]; 31 g ai/ha, Preemergence) of the same molecule?
Its pest or weed control at 31 g/ha is 40%.

And the pest or weed control at 125 g/ha [4, 21]?
Its pest or weed control at 125 g/ha is 50%.

What about the pest or weed control at 31 g/ha ([5]; 31 g ai/ha, Preemergence) of the same molecule?
The pest or weed control at 31 g/ha was 0%.

And the pest or weed control at 125 g/ha [5, 21]?
The pest or weed control at 125 g/ha was 40%.

And the pest or weed control at 31 g/ha ([6]; 31 g ai/ha, Preemergence)?
Its pest or weed control at 31 g/ha is 90%.

What about the pest or weed control at 125 g/ha [6, 21] of the same molecule?
The pest or weed control at 125 g/ha was 90%.

And the plant injury at 125 g/ha [7]?
The plant injury at 125 g/ha was 90%.

And the pest or weed control at 125 g/ha ([8]; 125 g ai/ha, postemergence, visual injury vs untreated controls after approx. 10 d, 0 = no effect, 100 = complete control, read-out: Barnyardgrass plant response rating (0 to 100 scale))?
Its pest or weed control at 125 g/ha is 90%.

And the pest or weed control at 31 g/ha ([8]; Postemergence, 31 g ai/ha, visual injury after approx. 10 d, 0 to 100 scale, 0 no effect, 100 complete control, read-out: Plant response rating, Barnyardgrass)?
The pest or weed control at 31 g/ha was 80%.

What about the pest or weed control at 125 g/ha ([9]; 125 g ai/ha, postemergence, visual injury vs untreated controls after approx. 10 d, 0 = no effect, 100 = complete control, read-out: Galium plant response rating (0 to 100 scale)) of the same molecule?
Its pest or weed control at 125 g/ha is 50%.

And the pest or weed control at 31 g/ha ([9]; Postemergence, 31 g ai/ha, visual injury after approx. 10 d, 0 to 100 scale, 0 no effect, 100 complete control, read-out: Plant response rating, Galium)?
Its pest or weed control at 31 g/ha is 30%.

And the plant injury at 125 g/ha ([10]; 125 g ai/ha, postemergence, visual injury vs untreated controls after approx. 10 d, 0 = no effect, 100 = complete control, read-out: Corn plant response rating (0 to 100 scale))?
The plant injury at 125 g/ha was 90%.

And the Corn plant response rating (crop injury, 0 = no effect, 100 = complete kill) at 31 g/ha ([10]; Postemergence, 31 g ai/ha, visual injury after approx. 10 d, 0 to 100 scale, 0 no effect, 100 complete control)?
The Corn plant response rating (crop injury, 0 = no effect, 100 = complete kill) at 31 g/ha was 50%.

And the pest or weed control at 125 g/ha [11]?
Its pest or weed control at 125 g/ha is 30%.

And the pest or weed control at 125 g/ha ([12]; 125 g ai/ha, postemergence, visual injury vs untreated controls after approx. 10 d, 0 = no effect, 100 = complete control, read-out: Kochia plant response rating (0 to 100 scale))?
The pest or weed control at 125 g/ha was 40%.

What about the pest or weed control at 31 g/ha ([12]; Postemergence, 31 g ai/ha, visual injury after approx. 10 d, 0 to 100 scale, 0 no effect, 100 complete control, read-out: Plant response rating, Kochia) of the same molecule?
Its pest or weed control at 31 g/ha is 0%.

What about the pest or weed control at 125 g/ha [13] of the same molecule?
The pest or weed control at 125 g/ha was 30%.

And the pest or weed control at 125 g/ha [14]?
The pest or weed control at 125 g/ha was 0%.

What about the pest or weed control at 125 g/ha ([15]; 125 g ai/ha, postemergence, visual injury vs untreated controls after approx. 10 d, 0 = no effect, 100 = complete control, read-out: Foxtail, Giant plant response rating (0 to 100 scale)) of the same molecule?
The pest or weed control at 125 g/ha was 80%.

What about the pest or weed control at 31 g/ha ([15]; Postemergence, 31 g ai/ha, visual injury after approx. 10 d, 0 to 100 scale, 0 no effect, 100 complete control, read-out: Plant response rating, Foxtail, Giant) of the same molecule?
Its pest or weed control at 31 g/ha is 80%.

And the pest or weed control at 125 g/ha ([16]; 125 g ai/ha, postemergence, visual injury vs untreated controls after approx. 10 d, 0 = no effect, 100 = complete control, read-out: Blackgrass plant response rating (0 to 100 scale))?
The pest or weed control at 125 g/ha was 70%.

And the pest or weed control at 31 g/ha ([16]; Postemergence, 31 g ai/ha, visual injury after approx. 10 d, 0 to 100 scale, 0 no effect, 100 complete control, read-out: Plant response rating, Blackgrass)?
Its pest or weed control at 31 g/ha is 50%.

And the pest or weed control at 250 g/ha [17]?
The pest or weed control at 250 g/ha was 95%.

And the pest or weed control at 250 g/ha [18]?
Its pest or weed control at 250 g/ha is 95%.

And the pest or weed control at 250 g/ha [19]?
Its pest or weed control at 250 g/ha is 0%.

What about the pest or weed control at 250 g/ha [20] of the same molecule?
Its pest or weed control at 250 g/ha is 0%.
